Test results published in patent publication US8906914B2, “Ethylene diamine modulators of fatty acid hydrolase” (priority 2009, dated 2014).
Structures can show the parent of a compound that is named as a salt. One block for each compound: values may come before it.

How the values were obtained:
anxiety = settings: rats; Kathuria 2003; cited from earlier work
thermal nociception [1] = settings: rat; cited from earlier work
nociception = settings: rat; Kathuria 2003; cited from earlier work
thermal nociception [2] = settings: rats; WO 04/033652; cited from earlier work
FAAH [3] = target: T1, FAAH (Homo sapiens, UniProt O00519); settings: reported; cited from earlier work
T1 sequence (O00519 1-579): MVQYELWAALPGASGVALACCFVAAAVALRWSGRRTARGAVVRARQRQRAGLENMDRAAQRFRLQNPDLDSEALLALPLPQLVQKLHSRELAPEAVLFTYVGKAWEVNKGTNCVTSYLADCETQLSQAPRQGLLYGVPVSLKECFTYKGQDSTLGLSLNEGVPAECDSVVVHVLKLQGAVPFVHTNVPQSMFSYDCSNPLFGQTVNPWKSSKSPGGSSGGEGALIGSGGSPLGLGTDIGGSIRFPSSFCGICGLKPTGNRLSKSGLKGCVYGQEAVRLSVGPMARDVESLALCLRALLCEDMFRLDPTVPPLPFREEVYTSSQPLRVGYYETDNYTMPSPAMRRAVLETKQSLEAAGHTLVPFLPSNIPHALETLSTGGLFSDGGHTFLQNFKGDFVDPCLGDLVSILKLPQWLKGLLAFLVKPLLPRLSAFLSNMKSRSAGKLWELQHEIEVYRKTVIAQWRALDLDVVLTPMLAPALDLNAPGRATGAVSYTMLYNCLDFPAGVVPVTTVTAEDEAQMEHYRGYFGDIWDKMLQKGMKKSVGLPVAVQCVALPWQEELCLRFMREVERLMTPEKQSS

spasticity = settings: Baker 2001; cited from earlier work
neuropathic pain = settings: rats; WO 02/087569; cited from earlier work
[4] = system: acute thermal nociception; settings: rats; WO 02/087569; cited from earlier work
Rat FAAH-1 = target: T2, Rat FAAH-1 (Rattus norvegicus, UniProt P97612); experiment: Rat FAAH-1 assay (Assay Method 2), 3H-anandamide hydrolysis in cell homogenate; assay type: biochemical
T2 construct: expressed in transfected cells
T2 sequence (P97612 1-579): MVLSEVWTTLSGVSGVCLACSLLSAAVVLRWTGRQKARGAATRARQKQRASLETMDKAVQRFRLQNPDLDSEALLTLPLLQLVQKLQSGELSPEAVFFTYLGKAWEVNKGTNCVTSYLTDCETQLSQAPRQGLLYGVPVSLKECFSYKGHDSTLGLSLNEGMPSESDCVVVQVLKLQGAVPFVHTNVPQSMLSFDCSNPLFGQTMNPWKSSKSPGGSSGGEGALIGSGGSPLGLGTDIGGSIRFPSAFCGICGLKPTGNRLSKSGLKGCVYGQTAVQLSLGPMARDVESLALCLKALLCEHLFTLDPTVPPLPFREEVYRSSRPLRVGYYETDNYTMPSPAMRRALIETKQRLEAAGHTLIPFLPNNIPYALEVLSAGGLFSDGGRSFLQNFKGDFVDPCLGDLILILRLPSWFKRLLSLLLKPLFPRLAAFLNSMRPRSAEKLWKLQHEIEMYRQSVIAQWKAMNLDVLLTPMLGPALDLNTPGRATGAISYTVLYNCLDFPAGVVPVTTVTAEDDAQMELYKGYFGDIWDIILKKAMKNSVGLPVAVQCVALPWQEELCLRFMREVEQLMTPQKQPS
In short: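 Homogenate of SK-N-MC cells stably transfected with rat FAAH cDNA, incubated with test compound and 80 nM final 3H-anandamide (ethanolamine-labelled) for 1 h at rt. Released 3H-ethanolamine separated from substrate on activated charcoal filters by centrifugation and counted by scintillation.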

FAAH [5] = target: T1, FAAH; experiment: Human FAAH assay (Assay Method 1), 3H-anandamide hydrolysis in cell homogenate; assay type: biochemical; set-up: expressed in transfected cells; alternatively T84 frozen cell pellets (endogenous FAAH)
In short: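 Homogenate of SK-N-MC cells stably transfected with human FAAH, incubated with compound and 80 nM (final) 3H-anandamide for 1 h at rt. Released 3H-ethanolamine separated from substrate on activated charcoal by centrifugation and counted by scintillation; ">" values denote solubility limit or top concentration tested.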

Compound: NC(=O)c1cccc(-c2cccc(OC(=O)NC3CCCCC3)c2)c1 [URB-597]
efficacy in zero plus maze model of anxiety (anxiety): efficacy
analgesic efficacy/activity in hot plate test (thermal nociception [1]): analgesic efficacy
analgesic efficacy in formalin test (nociception): analgesic efficacy

Compound: O=C(CCCCCCc1ccccc1)c1ncc(-c2ccccn2)o1 [OL-135]
analgesic efficacy/activity in hot plate test (thermal nociception [1]): analgesic activity
analgesic activity in tail emersion test (thermal nociception [2]): analgesic activity
inhibition of FAAH (FAAH [3]): potent inhibitor

Compound: CCCCCCCCCCCCCCCCS(=O)(=O)F [AM374]
spasticity in CREAE mice (spasticity): significantly reduce spasticity

Compound: Cc1nc(-c2ccccc2)c(-c2ccccc2)n1CCCCCCNC(=O)Oc1ccccc1F [BMS-1]
analgesic effect in Chung spinal nerve ligation model (neuropathic pain): analgesic effect
analgesic effect in Hargraves test [4]: analgesic effect

IC50 (Rat FAAH-1): 0.88 µM
IC50 (FAAH [5]): 0.082 µM
Compound: N[C@@H](CNc1cc(-c2ccc(OC(F)(F)F)cc2)ncn1)c1ccccc1 [Example 6, (1R)-1-Phenyl-N^2-{6-[4-(trifluoromethoxy)phenyl]pyrimidin-4-yl}ethane-1,2-diamine hydrochloride acid salt]

Compound: N[C@@H](CNc1cc(-c2ccc(Cl)cc2)ncn1)c1ccccc1 [Example 14, (1R)—N^2-[6-(4-Chlorophenyl)pyrimidin-4-yl]-1-phenylethane-1,2-diamine hydrochloride acid salt]
IC50 (Rat FAAH-1): > 10 µM
IC50 (FAAH [5]): 1 µM

IC50 (Rat FAAH-1): 0.13 µM
IC50 (FAAH [5]): 0.077 µM
Compound: N#Cc1ccc([C@@H](N)CNc2cc(-c3ccc(C(F)(F)F)c(Cl)c3)ncn2)cc1 [Example 34, (1R)-4-{1-Amino-2-[6-(3-chloro-4-trifluoromethyl-phenyl)-pyrimidin-4-ylamino]-ethyl}-benzonitrile]
